Assay results published in patent US6156700A, “3-(1,2-Benzisothiazol- and isoxazol-5-yl)-2,4(1H,3H)-pyrimidinedione or thione and 3-(1,2-benzisothiazol- and isoxazol-5-yl)-4(3H)-pyrimidinone or thione herbicidal agents” (American Cyanmid Company, priority 1998, dated 2000).

Tests used:
[1] = system: Morningglory Spp., Ipomoea Spp.; assay: Postemergence herbicidal evaluation, IPOSS; format: in vivo; settings: 0.2500 kg/ha
Method: (§1) In the tests, seedling plants are grown in jiffy flats for about two weeks. The test compounds are dispersed in 50/50 acetone/water mixtures containing 0.5% TWEEN®20, a polyoxyethylene sorbitan monolaurate surfactant of Atlas Chemical Industries, in sufficient quantities to provide the equivalent of about 0.0157 kg to 0.500 kg per hectare of active compound when applied to the plants through a spray nozzle operating at 40 psi for a predetermined time. After spraying, the plants are placed on greenhouse benches and are cared for in accordance with conventional greenhouse procedures. From four to five weeks after treatment, the seedling plants are examined and rated according to the rating system set forth below. Where more than one test is involved for a given compound, the data are averaged.
(§2) Results of herbicide evaluation are expressed on a rating scale (0-9). The scale is based upon a visual observation of plant stand, vigor, malformation, size, chlorosis and overall plant appearance as compared with a control.

[2] = system: SAGPY Arrowhead (Pygmaea); assay: Postemergence weed control, flooded paddy (Table IV); format: in vivo, Sagittaria pygmaea; set-up: scale not given here
How it was run: (§3)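 Herbicidal effect is scored visually on a rating scale three to four weeks after compounds, in aqueous/acetone 50/50 v/v, are added to flood water at roughly 0.0313 to 0.500 kg/ha. Plants: weeds 3 to 5 cm tall, rice at 1.5 to 2.5 leaves.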

[3] = system: Velvetleaf, Abutilon theophrasti; assay: Postemergence herbicidal evaluation, ABUTH; format: in vivo, Medic.
How it was run: (§4)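 Plants were raised for roughly two weeks, then treated by spraying at 40 psi with test compound dispersed in 50/50 acetone/water with 0.5% TWEEN 20, giving about 0.0157 to 0.500 kg/ha. After four to five weeks in the greenhouse they were scored 0–9 against a control.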

[4] = system: Soybean, Glycine max; assay: Postemergence herbicidal evaluation, GLXMA; format: in vivo, (L.) Merr.; settings: 0.2500 kg/ha
Method: as §1, §2

[5] = system: CYPSE Flatsedge; assay: Postemergence weed control, flooded paddy (Table IV); format: in vivo, Cyperus serotinus; set-up: scale not given here
How it was run: as §3

[6] = system: MOOVA Monochoria; assay: as above; format: in vivo, Monochoria vaginalis; set-up: scale not given here
How it was run: as §3

[7] = system: CYPSE Flatsedge; assay: Preemergence weed control, flooded paddy (Table III); format: in vivo, Cyperus serotinus; set-up: scale not given here
Method: (§5) Preemergence herbicidal activity under flooded paddy conditions is determined as follows: plant seeds or propagating organs are planted in the top 0.5 cm of silt loam soil in 32 oz. plastic containers with a diameter of 10.5 cm and no drainage holes. Water is added to these containers and maintained at 1.5 to 3 cm above the soil surface for the duration of the experiment. The test compounds are applied as aqueous/acetone mixtures 50/50 v/v pipetted directly into the flood water to give the equivalent of about 0.0313 to 0.500 kg/ha of active ingredient. The treated containers are placed on greenhouse benches and cared for in accordance with conventional greenhouse procedures. Three to four weeks after treatment, the test is terminated and each container is examined and herbicidal effect rated according to the rating system provided in Example 185. The compounds evaluated are reported by compound number given in Example 185.

[8] = system: Morningglory Spp., Ipomoea Spp.; assay: Preemergence herbicidal evaluation, IPOSS; format: in vivo; settings: 0.2500 kg/ha
Excerpt: as §2
(§6) The preemergence herbicidal activity of the test compounds of the present invention is exemplified by the following tests in which the seeds of a variety of monocotyledonous and dicotyledonous plants are separately mixed with potting soil and planted on top of approximately one inch of soil in separate pint cups. After planting, the cups are sprayed with the selected aqueous acetone solution containing test compound in sufficient quantity to provide the equivalent of about 0.0156 to 0.500 kg per hectare of test compound per cup. The treated cups are then placed on greenhouse benches, watered and cared for in accordance with conventional greenhouse procedures. From four to five weeks after treatment, the tests are terminated and each cup is examined and rated according to the rating system provided in Example 185.
(§7) The compounds evaluated are reported by compound number given in Example 185.

[9] = system: Lambsquarters, Common, Chenopodium album; assay: Preemergence herbicidal evaluation, CHEAL; format: in vivo, L.; settings: 0.2500 kg/ha
Excerpt: as §2, §6, §7

[10] = system: Soybean, Williams, Glycine max; assay: Postemergence herbicidal evaluation, GLXMAW; format: in vivo, (L.) Merr. cv Williams
How it was run: as §4

[11] = system: ORYSAT Rice, Tebonnet; assay: Tolerance of transplanted rice to post-transplant application (Table III); format: in vivo, Oryza sativa; set-up: scale not given here; settings: crop tolerance
Method: The tolerance of transplanted rice to post-transplanted herbicide applications is determined as follows: two ten-day-old rice seedlings (cv. Tebonnet) are transplanted into silt loam soil in 32 oz. plastic containers with a diameter of 10.5 cm and no drainage holes. After transplanting, the containers are flooded and the water level is maintained at 1.5 to 3 cm above the soil surface. Three days after transplanting, the flooded soil surface of the containers is treated with the selected aqueous/acetone 50/50 v/v mixture containing the test compounds to provide the equivalent of about 0.0313 to 0.500 kg/ha of active ingredient. The treated containers are placed on greenhouse benches, watered such that the water level is maintained as stated above, and cared for in accordance with conventional greenhouse procedures. Three to four weeks after treatment, the test is terminated and each container is examined and herbicidal effect rated according to the rating system provided in Example 185. The compounds evaluated are reported by compound number given in Example 185.

[12] = system: SAGPY Arrowhead (Pygmaea); assay: Preemergence weed control, flooded paddy (Table III); format: in vivo, Sagittaria pygmaea; set-up: scale not given here
Method: as §5

[13] = system: Sicklepod, Cassia obtusifolia; assay: Preemergence herbicidal evaluation, CASOB; format: in vivo, L.; settings: 0.2500 kg/ha
How it was run: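 Seeds mixed with potting soil were planted on about one inch of soil in cups, then sprayed with test compound in aqueous acetone at about 0.0156 to 0.500 kg per hectare. Plants were grown under greenhouse conditions and rated visually 4–5 weeks after treatment on a 0–9 scale against a control.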

[14] = system: Galium, Galium aparine; assay: Preemergence herbicidal evaluation, GALAP; format: in vivo; settings: 0.2500 kg/ha
Excerpt: as §2, §6, §7

[15] = system: Soybean, Williams, Glycine max; assay: Preemergence herbicidal evaluation, GLXMAW; format: in vivo, (L.) Merr. cv Williams; settings: 0.2500 kg/ha
Excerpt: as §2, §6, §7

[16] = system: Lambsquarters, Common, Chenopodium album; assay: Postemergence herbicidal evaluation, CHEAL; format: in vivo, L.
How it was run: as §4

[17] = system: Soybean, Glycine max; assay: Preemergence herbicidal evaluation, GLXMA; format: in vivo, (L.) Merr.; settings: 0.2500 kg/ha
Excerpt: as §2, §6, §7

Row | Compound | herbicide rating (0-9) [1] | herbicidal effect rating ([2]; 0.1250 kg/ha) | herbicidal effect rating ([2]; 0.2500 kg/ha) | herbicidal effect rating ([2]; 0.5000 kg/ha) | herbicide rating (0-9) ([3]; 0.2500 kg/ha) | herbicidal effect rating ([5]; 0.5000 kg/ha) | herbicidal effect rating ([6]; 0.1250 kg/ha) | herbicidal effect rating ([6]; 0.2500 kg/ha) | herbicidal effect rating ([6]; 0.5000 kg/ha) | herbicidal effect rating ([7]; 0.0625 kg/ha) | herbicidal effect rating ([7]; 0.1250 kg/ha) | herbicidal effect rating ([7]; 0.2500 kg/ha) | herbicidal effect rating ([7]; 0.5000 kg/ha) | herbicide rating (0-9) [8] | herbicidal effect rating ([11]; 0.0313 kg/ha) | herbicidal effect rating ([11]; 0.0625 kg/ha) | herbicidal effect rating ([11]; 0.1250 kg/ha) | herbicidal effect rating ([11]; 0.2500 kg/ha) | herbicidal effect rating ([11]; 0.5000 kg/ha) | herbicidal effect rating ([12]; 0.0313 kg/ha) | other results
1 | COc1ccc(C)cc1-c1nsc2ccc(-n3c(=O)cc(C(F)(F)F)n(C)c3=O)cc12 [Compound 1, 3-[3-(6-Methoxy-m-tolyl)-1,2-benzisothiazol-5-yl]-1-methyl-6-(trifluoromethyl)-2,4(1H,3H)-pyrimidinedione] | 9.0 | 0.0 | 1.0 | 3.0 | 9.0 | 6.5 | 4.5 | 5.5 | 6.5 | 3.0 | 6.0 | 9.0 | 8.0 | 4.0 | 4.7 | 4.7 | 5.3 | 7.7 | 7.0 | 3.3 | herbicide rating (0-9) ([3]; 0.0630 kg/ha): 9.0; herbicide rating (0-9) [4]: 9.0; herbicidal effect rating ([5]; 0.1250 kg/ha): 3.0; herbicidal effect rating ([5]; 0.2500 kg/ha): 5.5; herbicidal effect rating ([7]; 0.0313 kg/ha): 1.3; herbicide rating (0-9) [9]: 9.0; herbicide rating (0-9) ([10]; 0.0630 kg/ha): 6.0; herbicide rating (0-9) ([10]; 0.2500 kg/ha): 7.0; herbicidal effect rating ([12]; 0.0625 kg/ha): 5.0; herbicidal effect rating ([12]; 0.1250 kg/ha): 6.7; herbicidal effect rating ([12]; 0.2500 kg/ha): 8.3; herbicidal effect rating ([12]; 0.5000 kg/ha): 8.5; herbicide rating (0-9) [13]: 9.0; herbicide rating (0-9) [14]: 9.0; herbicide rating (0-9) [15]: 7.5; herbicide rating (0-9) ([16]; 0.0630 kg/ha): 9.0; herbicide rating (0-9) ([16]; 0.2500 kg/ha): 9.0
2 | Cn1c(C(F)(F)F)cc(=O)n(-c2ccc3snc(-c4ccccc4)c3c2)c1=O [Compound 4, 1-Methyl-3-(3-phenyl-1,2-benzisothiazol-5-yl)-6-(trifluoromethyl)-2,4(1H,3H)-pyrimidinedione] | 9.0 | 6.0 | 9.0 | 9.0 | 9.0 | 9.0 | 9.0 | 9.0 | 9.0 | 2.0 | 9.0 | 9.0 | 9.0 | 9.0 | 4.0 | 7.0 | 7.0 | 8.0 | 8.0 | 2.0 | herbicide rating (0-9) [4]: 9.0; herbicidal effect rating ([5]; 0.1250 kg/ha): 7.0; herbicidal effect rating ([5]; 0.2500 kg/ha): 7.0; herbicide rating (0-9) [9]: 9.0; herbicidal effect rating ([12]; 0.0625 kg/ha): 2.0; herbicidal effect rating ([12]; 0.1250 kg/ha): 6.0; herbicidal effect rating ([12]; 0.2500 kg/ha): 9.0; herbicidal effect rating ([12]; 0.5000 kg/ha): 9.0; herbicide rating (0-9) [13]: 9.0; herbicide rating (0-9) [14]: 9.0; herbicide rating (0-9) ([16]; 0.2500 kg/ha): 9.0; herbicide rating (0-9) [17]: 7.0
3 | COC(=O)COc1cc(C)c(C)cc1-c1nsc2ccc(-n3c(=O)cc(C(F)(F)F)n(C)c3=O)cc12 [Compound 12, Methyl {{6-{5-[3,6-dihydro-3-methyl-4-(trifluoromethyl)-2,6-dioxo-1(2H)-pyrimidinyl]-1,2-benzisothiazol-3-yl}-3,4-xylyl}oxy}acetate] | 9.0 | 0.0 | 4.0 | 9.0 | 9.0 | 2.0 | 9.0 | 9.0 | 9.0 | 7.0 | 8.0 | 7.0 | 7.0 | 9.0 | 4.0 | 7.0 | 7.0 | 8.0 | 9.0 | 0.0 | herbicidal effect rating ([7]; 0.0313 kg/ha): 6.0; herbicide rating (0-9) ([10]; 0.2500 kg/ha): 9.0; herbicidal effect rating ([12]; 0.0625 kg/ha): 2.0; herbicidal effect rating ([12]; 0.1250 kg/ha): 4.0; herbicidal effect rating ([12]; 0.2500 kg/ha): 9.0; herbicidal effect rating ([12]; 0.5000 kg/ha): 9.0; herbicide rating (0-9) [13]: 9.0; herbicide rating (0-9) ([16]; 0.2500 kg/ha): 9.0
4 | COC(=O)C(C)Oc1cc(C)c(C)cc1-c1nsc2ccc(-n3c(=O)cc(C(F)(F)F)n(C)c3=O)cc12 (stereo not shown) [Compound 13, Methyl 2-{{6-{5-[3,6-dihydro-3-methyl-4-(trifluoromethyl)-2,6-dioxo-1(2H)-pyrimidinyl]-1,2-benzisothiazol-3-yl}-3,4-xylyl}oxy}propionate] | 9.0 | 2.0 | 2.0 | 9.0 | 9.0 | 2.0 | 9.0 | 9.0 | 9.0 | 2.0 | 7.0 | 7.0 | 7.0 | 9.0 | 4.0 | 6.0 | 7.0 | 7.0 | 9.0 | 0.0 | herbicidal effect rating ([5]; 0.1250 kg/ha): 2.0; herbicidal effect rating ([5]; 0.2500 kg/ha): 4.0; herbicidal effect rating ([7]; 0.0313 kg/ha): 0.0; herbicide rating (0-9) ([10]; 0.2500 kg/ha): 8.5; herbicidal effect rating ([12]; 0.0625 kg/ha): 2.0; herbicidal effect rating ([12]; 0.1250 kg/ha): 6.0; herbicidal effect rating ([12]; 0.2500 kg/ha): 8.0; herbicidal effect rating ([12]; 0.5000 kg/ha): 9.0; herbicide rating (0-9) [13]: 9.0; herbicide rating (0-9) ([16]; 0.2500 kg/ha): 9.0
